Assay results reported in patent publication US6521814B1, “Use of ligands for treatment of diseases responsive to retinoids” (Institut National de la Santa et de la Recherche Medicale, priority 1997, dated 2003).

Legend:
Assay type in all cases: cell-based, murine
RARα−/− F9 cells [1] = experiment: Morphological differentiation of F9 cell aggregates into visceral endoderm (VE)-like cells (morphology, RT-PCR of markers); settings: 50 nM
From the text: (§1) Similarly, after 10 d of treatment, >80% of the outer layer of RARα^−/− and RXRα^−/−/RARα^−/− cell aggregates differentiated into VE-like cells, which were indistinguishable from those of WT and RXRα^−/− cells (FIG. 23A, compare f with panels b and d; and Table 9). […] To exclude the possibility that this very poor differentiation of the RXRα^−/−/RARγ^−/− cells could be due to some clonal variation, rather than the presence of the RXRα-null mutation in the RARγ-null background, we expressed the RXRα cDNA in RXRα^−/−/RARγ^−/− cells.
(§2) F9 cells were cultured and induced to differentiate into primitive, parietal and visceral endoderm-like cells as previously described (Boylan, J., et al., Proc. Natl. Acad. Sci. USA 90:9601-9605 (1993); Clifford, J., et al., EMBO J. 15:4142-4155 (1996)).
(§3) RNA preparation, RT-PCR, and Southern blotting were performed as previously described (Bouillet, P., et al., Dev. Biol. 170:420-433 (1995); Roy, B., et al., Mol. Cell. Biol. 15:6481-6487 (1995)). The PCR primers and end-labeled oligonucleotide probes for collagen IVα1, laminin B1, α-fetoprotein (AFP), and 36B4, were described previously (Clifford, J., et al ., EMBO J. 15:4142-4155 (1996)). Transcript levels were quantified using a BAS 2000 bioimaging analyzer (Fuji Ltd., Tokyo, Japan), and were normalized to the corresponding 36B4 signals.

WT F9 cells [2] = experiment: as above; settings: 50 nM, 10 d
From the text: as §1, §2, §3

RXRα−/− F9 cells [3] = experiment: as above; settings: 50 nM, 10 d
From the text: (§4) Transcript levels were quantified using a BAS 2000 bioimaging analyzer (Fuji Ltd., Tokyo, Japan), and were normalized to the corresponding 36B4 signals.

RXRα−/−/RARα−/− F9 cells [4] = experiment: as above; settings: 50 nM
From the text: as §4

RXRα−/−/RARγ−/− F9 cells [5] = experiment: as above
From the text: as §4

RARγ−/− F9 cells [6] = experiment: as above
Procedure: as §2, §3

WT F9 cells [7] = experiment: Proliferation of F9 cells in monolayer culture (cell counting, [3H]thymidine incorporation, cell cycle FACS); settings: 1 μM, 5 d
Procedure: Cells were plated in triplicate 3-cm culture wells (5×10^2 cells per well), and cell counting experiments were performed as previously described (Clifford, J., et al., EMBO J. 15:4142-4155 (1996)). [^3H]Thymidine incorporation assays were performed essentially as described (Clifford, J., et al., EMBO J. 15:4142-4155 (1996)), with the following modifications. […] The cell cycle profile of WT and mutant cells was determined as previously described (Clifford, J., et al. EMBO J. 15:4142-4155 (1996)).

RXRα−/− F9 cells [8] = experiment: as above; settings: 1 μM, 5 d
RXRα−/−/RARα−/− F9 cells [9] = experiment: as above; settings: 1 μM, 5 d
RXRα−/− F9 cells [10] = experiment: Apoptosis of F9 cells (Hoechst 33258 staining, FACS); settings: 1 μM
RXRα−/−/RARα−/− F9 cells [11] = experiment: as above; settings: 1 μM
RXRα−/−/RARγ−/− F9 cells [12] = experiment: as above; settings: 1 μM, after 5 d
RXRα−/− F9 cells [13] = experiment: Differentiation of F9 cells into primitive and parietal endoderm-like cells in monolayer (morphology, RT-PCR of collagen type IVα1 and laminin B1); settings: 1 μM, 48 h
From the text: (§5) The differentiation patterns of RXRα^−/−/RARα^−/−and RXRα^−/−/RARγ^−/− cells were compared with those of WT and single knockout cell lines.
as §4

RXRα−/−/RARα−/− F9 cells [14] = experiment: as above
From the text: as §5, §4

RXRα−/−/RARγ−/− F9 cells [15] = experiment: as above
From the text: as §5, §4

RARα−/− F9 cells [16] = experiment: as above; settings: 1 μM, 48 h
Procedure: as §5, §2, §3

RARγ−/− F9 cells [17] = experiment: as above; settings: 1 μM, 48 h
Procedure: as §5, §2, §3

[18] = 1 μM tRA alone or with 250 μM bt2cAMP, after 4 d

Q: Which “proportion of outer layer of cells displaying VE morphology” value (RARα−/− F9 cells [1]; 10 d) does the source give for `CC1=C(/C=C/C(C)=C/C=C/C(C)=C/C(=O)O)C(C)(C)CCC1` [tRA, all-trans retinoic acid] here?
A: +++ (more than 80%)

Q: What about the “outer layer of cell aggregates differentiated into VE-like cells” value (RARα−/− F9 cells [1]; after 10 d) of the same compound?
A: > 80%

Q: What about the “induction of collagen type IVα1, laminin B1 and AFP mRNA” value (WT F9 cells [2]; WT aggregates) of the same compound?
A: similarly induced

Q: What about the “proportion of outer layer of cells displaying VE morphology” value (WT F9 cells [2]; WT) of the same compound?
A: +++ (more than 80%)

Q: What about the “proportion of outer layer of cells displaying VE morphology” value (RXRα−/− F9 cells [3]) of the same compound?
A: +++ (more than 80%)

Q: And the “induction of collagen type IVα1, laminin B1 and AFP mRNA” value (RXRα−/−/RARα−/− F9 cells [4]; RXRα−/−/RARα−/− aggregates, 10 d)?
A: similarly induced

Q: And the “proportion of outer layer of cells displaying VE morphology” value (RXRα−/−/RARα−/− F9 cells [4]; RXRα−/−/RARα−/−, 10 d)?
A: +++ (more than 80%)

Q: What about the “outer layer of cell aggregates differentiated into VE-like cells” value (RXRα−/−/RARα−/− F9 cells [4]; RXRα−/−/RARα−/−, after 10 d) of the same compound?
A: > 80%

Q: And the “induction of collagen IVα1, laminin B1 or AFP mRNA” value (RXRα−/−/RARγ−/− F9 cells [5]; RXRα−/−/RARγ−/− aggregates, 50 nM, 10 d)?
A: no induction

Q: And the “surface of the aggregates” value (RXRα−/−/RARγ−/− F9 cells [5]; RXRα−/−/RARγ−/−, 50 nM, after 10 days)?
A: as smooth after 10 days of treatment as in untreated controls

Q: And the “aggregates displaying only a spotty VE conversion” value (RXRα−/−/RARγ−/− F9 cells [5]; RXRα−/−/RARγ−/−, after 12 or 18 d of treatment)?
A: < 10%

Q: What about the “induction of AFP mRNA” value (RARγ−/− F9 cells [6]; RARγ−/− aggregates, 50 nM, 10 d) of the same compound?
A: hardly detectable

Q: What about the “proportion of outer layer of cells displaying VE morphology” value (RARγ−/− F9 cells [6]; RARγ−/−, 50 nM, 10 d) of the same compound?
A: ± (not more than 10%)

Q: And the “outer layer of cells exhibiting VE conversion” value (RARγ−/− F9 cells [6]; RARγ−/−, 50 nM, after 10 d)?
A: < 10%

Q: What about the “proportion of outer layer of cells displaying VE morphology” value (RARγ−/− F9 cells [6]; RARγ−/−, 50 nM, after 14 d of treatment) of the same compound?
A: +++ (more than 80%)

Q: And the VE differentiation (RARγ−/− F9 cells [6]; RARγ−/−, after 14 d of treatment)?
A: full VE differentiation was eventually achieved

Q: What about the “proportion of cells in the G0 and G1 phases (FACS)” value (“proportion of cells” for short) (WT F9 cells [7]) of the same compound?
A: 71%

Q: And the “proportion of cells” value (RXRα−/− F9 cells [8])?
A: 38%

Q: What about the “proportion of cells” value (RXRα−/−/RARα−/− F9 cells [9]) of the same compound?
A: 40%

Q: And the “proportion of apoptotic nuclei and subcellular fragments (Hoechst 33258)” value (RXRα−/− F9 cells [10]; 6 d)?
A: ± (<1%)

Q: What about the “sub-2N size DNA-containing particles ('apoptotic bodies'), FACS” value (from here on “sub-2N size DNA-containing particles”) (RXRα−/− F9 cells [10]; after 5 d) of the same compound?
A: not detected

Q: What about the “proportion of apoptotic nuclei and subcellular fragments (Hoechst 33258)” value (RXRα−/−/RARα−/− F9 cells [11]; 6 d) of the same compound?
A: ± (<1%)

Q: What about the “sub-2N size DNA-containing particles” value (RXRα−/−/RARα−/− F9 cells [11]; after 5 d) of the same compound?
A: not detected

Q: What about the “sub-2N size DNA-containing particles” value (RXRα−/−/RARγ−/− F9 cells [12]) of the same compound?
A: not detected

Q: What about the “induction of collagen type IVα1 mRNA, lower level compared to WT cells” value (RXRα−/− F9 cells [13]) of the same compound?
A: 3 fold

Q: And the “induction of laminin B1 mRNA, lower level compared to WT cells” value (RXRα−/− F9 cells [13])?
A: 6 fold

Q: What about the “cells with morphological characteristics of primitive or parietal endodermal differentiation” value (RXRα−/−/RARα−/− F9 cells [14]; [18]) of the same compound?
A: < 10%

Q: And the “induction of collagen type IVα1 mRNA, lower level compared to WT cells” value (RXRα−/−/RARα−/− F9 cells [14]; 1 μM, 48 h)?
A: five

Q: And the morphological differentiation (RXRα−/−/RARγ−/− F9 cells [15]; [18])?
A: No morphological differentiation at all

Q: What about the “induction of collagen type IVα1 and laminin B1 mRNA” value (RXRα−/−/RARγ−/− F9 cells [15]; 1 μM, 48 h) of the same compound?
A: fully abrogated

Q: What about the “cells exhibiting a differentiated morphology” value (RXRα−/−/RARγ−/− F9 cells [15]; after 6 days of treatment) of the same compound?
A: < 0.1%

Q: And the morphological differentiation (RXRα−/−/RARγ−/− F9 cells [15]; after 10 d of treatment)?
A: undifferentiated phenotype persisted

Q: And the “induction of collagen type IVα1 and laminin B1 mRNA compared to WT cells” value (RARα−/− F9 cells [16])?
A: not altered

Q: What about the “induction of collagen type IVα1 mRNA, lower level compared to WT cells” value (RARγ−/− F9 cells [17]) of the same compound?
A: 10 fold

Q: What about the “induction of laminin B1 mRNA, lower level compared to WT cells” value (RARγ−/− F9 cells [17]) of the same compound?
A: 6 fold
